According to ChEMBL document CHEMBL3244250, “Bisamidines of 2,6-diaminoanthraquinone as antiamebic agents” (J Med Chem, 1978):
Calls of active or inactive are those of the source. The rule behind the calls is not given here.

Experiments:
Entamoeba histolytica [1] = test: Antimicrobial activity against Entamoeba histolytica NIH 200-mu hepatic forms infected in golden hamster assessed as survival rate administered qd for 5 days measured up to 14 days by microscopic analysis; format: functional; details: for minimal effective dose: read-out: MED
Entamoeba histolytica [2] = test: Antimicrobial activity against Entamoeba histolytica NIH 200-mu cecal forms infected in Wistar albino rat assessed as cure rate administered qd for 5 days by microscopic analysis; format: functional; details: for minimal effective dose: 120 h, read-out: MED
Salmonella typhimurium = test: Mutagenic activity in Salmonella typhimurium by Ames test; format: toxicity, organism-based; details: salmonella enterica subsp. enterica serovar typhimurium
Rattus norvegicus [3] = test: Toxicity in Wistar albino rat assessed as general listlessness administered qd for 5 days; format: organism-based; details: in vivo, 120 h
Rattus norvegicus [4] = test: Toxicity in Wistar albino rat assessed as reduction in water and food intake administered qd for 5 days; format: organism-based; details: in vivo, 120 h
Syrian golden hamster [5] = test: Toxicity in golden hamster assessed as general listlessness administered qd for 5 days; format: organism-based, Mesocricetus auratus; details: in vivo, 120 h
Syrian golden hamster [6] = test: Toxicity in golden hamster assessed as reduction in water and food intake administered qd for 5 days; format: organism-based, Mesocricetus auratus; details: in vivo, 120 h
Syrian golden hamster [7] = test: Toxicity in golden hamster assessed as reduction in water and food intake up to 150 mg/kg administered qd for 5 days; format: organism-based, Mesocricetus auratus; set-up: dose 150 mg/kg; details: in vivo, 120 h
Rattus norvegicus [8] = test: Toxicity in Wistar albino rat assessed as reduction in water and food intake up to 150 mg/kg administered qd for 5 days; format: organism-based; set-up: dose 150 mg/kg; details: in vivo, 120 h
Rattus norvegicus [9] = test: Toxicity in Wistar albino rat assessed as general listlessness up to 150 mg/kg administered qd for 5 days; format: organism-based; set-up: dose 150 mg/kg; details: in vivo, 120 h
Syrian golden hamster [10] = test: Toxicity in golden hamster assessed as general listlessness up to 150 mg/kg administered qd for 5 days; format: organism-based, Mesocricetus auratus; set-up: dose 150 mg/kg; details: in vivo, 120 h

CN(C)/C(=N/c1ccc2c(c1)C(=O)c1ccc(/N=C(\c3ccc(Cl)cc3)N(C)C)cc1C2=O)c1ccc(Cl)cc1
minimal effective dose (Entamoeba histolytica [1]): 50 mg/kg
minimal effective dose (Entamoeba histolytica [2]): 20 mg/kg
Activity (Salmonella typhimurium): Non-toxic

CN(C)/C=N\c1cccc2c1C(=O)c1cccc(/N=C\N(C)C)c1C2=O
Activity (Entamoeba histolytica [1]): inactive
Activity (Entamoeba histolytica [2]): inactive

O=C1c2ccc(/N=C/N3CCCCC3)cc2C(=O)c2ccc(/N=C/N3CCCCC3)cc21
minimal effective dose (Entamoeba histolytica [1]): 100 mg/kg
minimal effective dose (Entamoeba histolytica [2]): 20 mg/kg
Activity (Rattus norvegicus [3]): Toxic
Activity (Rattus norvegicus [4]): Toxic
Activity (Syrian golden hamster [5]): Toxic
Activity (Syrian golden hamster [6]): Toxic

CCN/C(C)=N/c1ccc2c(c1)C(=O)c1ccc(/N=C(\C)NCC)cc1C2=O
Activity (Entamoeba histolytica [1]): inactive
minimal effective dose (Entamoeba histolytica [2]): 10 mg/kg
Activity (Syrian golden hamster [7]): Non-toxic
Activity (Rattus norvegicus [8]): Non-toxic
Activity (Rattus norvegicus [9]): Non-toxic
Activity (Syrian golden hamster [10]): Non-toxic

CCN(CC)/C(C)=N\c1ccc(/N=C(/C)N(CC)CC)c2c1C(=O)c1ccccc1C2=O
Activity (Entamoeba histolytica [1]): inactive
Activity (Entamoeba histolytica [2]): inactive

O=C1c2ccc(/N=C(\c3ccccc3)N3CCCCC3)cc2C(=O)c2ccc(/N=C(\c3ccccc3)N3CCCCC3)cc21
Activity (Entamoeba histolytica [1]): inactive
minimal effective dose (Entamoeba histolytica [2]): 10 mg/kg

CN(C)/C=N/c1ccc2c(c1)C(=O)c1ccccc1C2=O
Activity (Entamoeba histolytica [1]): inactive
Activity (Entamoeba histolytica [2]): inactive
Activity (Rattus norvegicus [3]): Toxic
Activity (Rattus norvegicus [4]): Toxic
Activity (Syrian golden hamster [5]): Toxic
Activity (Syrian golden hamster [6]): Toxic

CN(C)/C(=N/c1ccc2c(c1)C(=O)c1ccc(/N=C(\C3CC3)N(C)C)cc1C2=O)C1CC1
minimal effective dose (Entamoeba histolytica [1]): 50 mg/kg
minimal effective dose (Entamoeba histolytica [2]): 10 mg/kg
Activity (Salmonella typhimurium): Non-toxic

CCN(C(C)=O)/C(C)=N/c1ccc2c(c1)C(=O)c1ccc(/N=C(\C)N(CC)C(C)=O)cc1C2=O
Activity (Entamoeba histolytica [1]): inactive
Activity (Entamoeba histolytica [2]): inactive
Activity (Syrian golden hamster [7]): Non-toxic
Activity (Rattus norvegicus [8]): Non-toxic
Activity (Rattus norvegicus [9]): Non-toxic
Activity (Syrian golden hamster [10]): Non-toxic

C/C(=N\c1ccc2c(c1)C(=O)c1ccc(/N=C(\C)N3CCCCC3)cc1C2=O)N1CCCCC1
minimal effective dose (Entamoeba histolytica [1]): 100 mg/kg
minimal effective dose (Entamoeba histolytica [2]): 50 mg/kg
Activity (Syrian golden hamster [7]): Non-toxic
Activity (Rattus norvegicus [8]): Non-toxic
Activity (Rattus norvegicus [9]): Non-toxic
Activity (Syrian golden hamster [10]): Non-toxic

O=[N+]([O-])c1cncn1CCN1CCOCC1 [NIMORAZOLE]
minimal effective dose (Entamoeba histolytica [1]): 100 mg/kg
minimal effective dose (Entamoeba histolytica [2]): 20 mg/kg

CC(C)C/C(=N\c1ccc2c(c1)C(=O)c1ccc(/N=C(\CC(C)C)N(C)C)cc1C2=O)N(C)C
minimal effective dose (Entamoeba histolytica [1]): 50 mg/kg
minimal effective dose (Entamoeba histolytica [2]): 20 mg/kg

CCN(CC)/C(C)=N/c1ccc2c(c1)C(=O)c1ccc(/N=C(\C)N(CC)CC)cc1C2=O
minimal effective dose (Entamoeba histolytica [1]): 2.5 mg/kg
minimal effective dose (Entamoeba histolytica [2]): 10 mg/kg
Activity (Syrian golden hamster [7]): Non-toxic
Activity (Rattus norvegicus [8]): Non-toxic
Activity (Rattus norvegicus [9]): Non-toxic
Activity (Syrian golden hamster [10]): Non-toxic
Activity (Salmonella typhimurium): Non-toxic

CC/C(=N\c1ccc2c(c1)C(=O)c1ccc(/N=C(\CC)N(C)C)cc1C2=O)N(C)C
minimal effective dose (Entamoeba histolytica [1]): 2.5 mg/kg
minimal effective dose (Entamoeba histolytica [2]): 10 mg/kg
Activity (Syrian golden hamster [7]): Non-toxic
Activity (Rattus norvegicus [8]): Non-toxic
Activity (Rattus norvegicus [9]): Non-toxic
Activity (Syrian golden hamster [10]): Non-toxic

CC(C)N(/C=N/c1ccc2c(c1)C(=O)c1ccc(/N=C/N(C(C)C)C(C)C)cc1C2=O)C(C)C
minimal effective dose (Entamoeba histolytica [1]): 100 mg/kg
minimal effective dose (Entamoeba histolytica [2]): 20 mg/kg
Activity (Rattus norvegicus [3]): Toxic
Activity (Rattus norvegicus [4]): Toxic
Activity (Syrian golden hamster [5]): Toxic
Activity (Syrian golden hamster [6]): Toxic

CC/C(=N\c1ccc2c(c1)C(=O)c1ccc(/N=C(\CC)N3CCN(C)CC3)cc1C2=O)N1CCN(C)CC1
Activity (Entamoeba histolytica [1]): inactive
minimal effective dose (Entamoeba histolytica [2]): 20 mg/kg
Activity (Syrian golden hamster [7]): Non-toxic
Activity (Rattus norvegicus [8]): Non-toxic
Activity (Rattus norvegicus [9]): Non-toxic
Activity (Syrian golden hamster [10]): Non-toxic

CCCCCCCCN(C)/C=N/c1ccc2c(c1)C(=O)c1ccc(/N=C/N(C)CCCCCCCC)cc1C2=O
Activity (Entamoeba histolytica [1]): inactive
minimal effective dose (Entamoeba histolytica [2]): 50 mg/kg
Activity (Rattus norvegicus [3]): Toxic
Activity (Rattus norvegicus [4]): Toxic
Activity (Syrian golden hamster [5]): Toxic
Activity (Syrian golden hamster [6]): Toxic

CC/C(N)=N\c1ccc2c(c1)C(=O)c1ccc(/N=C(/N)CC)cc1C2=O
Activity (Entamoeba histolytica [1]): inactive
Activity (Entamoeba histolytica [2]): inactive
Activity (Syrian golden hamster [7]): Non-toxic
Activity (Rattus norvegicus [8]): Non-toxic
Activity (Rattus norvegicus [9]): Non-toxic
Activity (Syrian golden hamster [10]): Non-toxic

CCN(CC)/C(=N/c1ccc2c(c1)C(=O)c1ccc(/N=C(\C3CC3)N(CC)CC)cc1C2=O)C1CC1
Activity (Entamoeba histolytica [1]): inactive
minimal effective dose (Entamoeba histolytica [2]): 20 mg/kg

O=C1c2ccc(N/C3=N/CCCCCC3)cc2C(=O)c2ccc(N/C3=N/CCCCCC3)cc21
Activity (Entamoeba histolytica [1]): inactive
minimal effective dose (Entamoeba histolytica [2]): 20 mg/kg
Activity (Syrian golden hamster [7]): Non-toxic
Activity (Rattus norvegicus [8]): Non-toxic
Activity (Rattus norvegicus [9]): Non-toxic
Activity (Syrian golden hamster [10]): Non-toxic

CCC/C(=N\c1ccc2c(c1)C(=O)c1ccc(/N=C(\CCC)N(C)C)cc1C2=O)N(C)C
minimal effective dose (Entamoeba histolytica [1]): 50 mg/kg
minimal effective dose (Entamoeba histolytica [2]): 20 mg/kg

CN(C)/C=N\c1ccc(/N=C\N(C)C)c2c1C(=O)c1ccccc1C2=O
Activity (Entamoeba histolytica [1]): inactive
Activity (Entamoeba histolytica [2]): inactive

C/C(N)=N\c1ccc2c(c1)C(=O)c1ccc(/N=C(\C)N)cc1C2=O
Activity (Entamoeba histolytica [1]): inactive
minimal effective dose (Entamoeba histolytica [2]): 10 mg/kg
Activity (Syrian golden hamster [7]): Non-toxic
Activity (Rattus norvegicus [8]): Non-toxic
Activity (Rattus norvegicus [9]): Non-toxic
Activity (Syrian golden hamster [10]): Non-toxic

CCN(CC)/C(=N/c1ccc2c(c1)C(=O)c1ccc(/N=C(/N(CC)CC)C(C)(C)C)cc1C2=O)C(C)(C)C
minimal effective dose (Entamoeba histolytica [1]): 50 mg/kg
minimal effective dose (Entamoeba histolytica [2]): 20 mg/kg

CN(C)/C(=N/c1ccc2c(c1)C(=O)c1ccc(/N=C(\C3CCC3)N(C)C)cc1C2=O)C1CCC1
minimal effective dose (Entamoeba histolytica [1]): 50 mg/kg
minimal effective dose (Entamoeba histolytica [2]): 20 mg/kg
Activity (Salmonella typhimurium): Non-toxic

C/C(=N/c1cccc2c1C(=O)c1cccc(/N=C(/C)N(C)C)c1C2=O)N(C)C
Activity (Entamoeba histolytica [1]): inactive
Activity (Entamoeba histolytica [2]): inactive

CCCCN(C)/C(CC)=N/c1ccc2c(c1)C(=O)c1ccc(/N=C(\CC)N(C)CCCC)cc1C2=O
minimal effective dose (Entamoeba histolytica [1]): 50 mg/kg
minimal effective dose (Entamoeba histolytica [2]): 20 mg/kg
Activity (Syrian golden hamster [7]): Non-toxic
Activity (Rattus norvegicus [8]): Non-toxic
Activity (Rattus norvegicus [9]): Non-toxic
Activity (Syrian golden hamster [10]): Non-toxic

CN(C)/C=N/c1ccc2c(c1)C(=O)c1ccc(/N=C/N(C)C)cc1C2=O
minimal effective dose (Entamoeba histolytica [1]): 10 mg/kg
minimal effective dose (Entamoeba histolytica [2]): 20 mg/kg
Activity (Rattus norvegicus [3]): Toxic
Activity (Rattus norvegicus [4]): Toxic
Activity (Syrian golden hamster [5]): Toxic
Activity (Syrian golden hamster [6]): Toxic

CC/C(=N\c1ccc2c(c1)C(=O)c1ccc(/N=C(\CC)N3CCCCC3)cc1C2=O)N1CCCCC1
Activity (Entamoeba histolytica [1]): inactive
minimal effective dose (Entamoeba histolytica [2]): 50 mg/kg
Activity (Syrian golden hamster [7]): Non-toxic
Activity (Rattus norvegicus [8]): Non-toxic
Activity (Rattus norvegicus [9]): Non-toxic
Activity (Syrian golden hamster [10]): Non-toxic

CN/C(C)=N/c1ccc2c(c1)C(=O)c1ccc(/N=C(\C)NC)cc1C2=O
Activity (Entamoeba histolytica [1]): inactive
minimal effective dose (Entamoeba histolytica [2]): 10 mg/kg
Activity (Syrian golden hamster [7]): Non-toxic
Activity (Rattus norvegicus [8]): Non-toxic
Activity (Rattus norvegicus [9]): Non-toxic
Activity (Syrian golden hamster [10]): Non-toxic

CCS(=O)(=O)CCn1c([N+](=O)[O-])cnc1C [TINIDAZOLE]
minimal effective dose (Entamoeba histolytica [1]): 25 mg/kg
minimal effective dose (Entamoeba histolytica [2]): 5 mg/kg

C/C(=N\c1ccc2c(c1)C(=O)c1ccc(/N=C(\C)N(C)C)cc1C2=O)N(C)C
minimal effective dose (Entamoeba histolytica [1]): 2.5 mg/kg
minimal effective dose (Entamoeba histolytica [2]): 5 mg/kg
Activity (Syrian golden hamster [7]): Non-toxic
Activity (Rattus norvegicus [8]): Non-toxic
Activity (Rattus norvegicus [9]): Non-toxic
Activity (Syrian golden hamster [10]): Non-toxic
Activity (Salmonella typhimurium): Non-toxic

Cc1ncc([N+](=O)[O-])n1CCO [METRONIDAZOLE]
minimal effective dose (Entamoeba histolytica [1]): 10 mg/kg
minimal effective dose (Entamoeba histolytica [2]): 10 mg/kg
